# ChEMBL document CHEMBL4673400, “Potential of Cyclin-Dependent Kinase Inhibitors as Cancer Therapy” (ACS Med Chem Lett, 2021)
# Target: CDK6/cyclin D1 (Homo sapiens, UniProt Q00534)
# Sequence (P24385 whole entry): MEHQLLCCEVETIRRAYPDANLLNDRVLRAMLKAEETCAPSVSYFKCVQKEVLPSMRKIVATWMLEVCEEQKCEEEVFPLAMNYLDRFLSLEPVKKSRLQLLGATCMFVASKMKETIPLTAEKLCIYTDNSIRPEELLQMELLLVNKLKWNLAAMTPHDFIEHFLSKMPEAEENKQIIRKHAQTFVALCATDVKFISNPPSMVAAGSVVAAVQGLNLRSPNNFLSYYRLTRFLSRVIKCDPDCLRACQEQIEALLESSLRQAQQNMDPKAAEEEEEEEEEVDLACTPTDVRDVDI
# Sequence (Q00534 whole entry): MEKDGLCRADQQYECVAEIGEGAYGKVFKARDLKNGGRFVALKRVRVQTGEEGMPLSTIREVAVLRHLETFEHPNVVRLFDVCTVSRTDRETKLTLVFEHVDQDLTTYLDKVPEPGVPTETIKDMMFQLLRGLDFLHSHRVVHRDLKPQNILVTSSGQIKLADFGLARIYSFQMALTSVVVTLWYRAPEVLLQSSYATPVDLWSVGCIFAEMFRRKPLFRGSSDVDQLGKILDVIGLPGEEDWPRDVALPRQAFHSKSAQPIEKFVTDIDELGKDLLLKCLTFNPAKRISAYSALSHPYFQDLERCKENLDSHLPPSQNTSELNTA
row,Structure (SMILES),Ki [nM]
1,C[C@@]1(O)CCC[C@H]1n1c(=O)ccc2cnc(NC3CCN(S(=O)(=O)CC4CC4)CC3)nc21,0.88

# Target: Cyclin-dependent kinase 2/cyclin E1 (Homo sapiens, UniProt P24941)
# Description: Inhibition of recombinant full length wild-type phosphorylated CDK2/Cyclin E1 (unknown origin) expressed in baculovirus expression system assessed as reduction in production of ADP using 5-FAM-QSPKKG-CONH2 peptide as substrate preincubated with enzyme for 15 mins followed by further incubation with ATP for 45 mins by fluorescence-based microfluidic mobility shift assay
row,Structure (SMILES),Ki [nM]
1,C[C@]1(O)CCC[C@@H]1n1c(=O)ccc2cnc(NC3CCN(S(=O)(=O)c4nccs4)CC3)nc21,7.32
2,CS(=O)(=O)N1CCC(Nc2ncc3cc(CC(N)=O)c(=O)n([C@@H]4CCC[C@@H](O)C4)c3n2)CC1,1.73
3,C[C@@]1(O)CCC[C@H]1n1c(=O)ccc2cnc(NC3CCN(S(=O)(=O)CC4CC4)CC3)nc21,0.25
4,C[C@@]1(O)CCC[C@H]1n1c(=O)c(CC#N)cc2cnc(NC3CCN(S(C)(=O)=O)CC3)nc21,0.16
5,CNS(=O)(=O)N1CCC(Nc2ncc3ccc(=O)n([C@@H]4CCC[C@@]4(C)O)c3n2)CC1,0.28
6,CNS(=O)(=O)N1CCC(Nc2ncc3cc(Cl)c(=O)n([C@@H]4CCC[C@@]4(C)O)c3n2)CC1,0.2
7,C[C@@H]1[C@H](O)CC[C@H]1n1c(=O)ccc2cnc(NC3CCN(S(C)(=O)=O)CC3)nc21,0.12
8,C[C@@]1(O)CCC[C@H]1n1c(=O)ccc2cnc(NC3CCN(S(N)(=O)=O)CC3)nc21,0.1
